Measurements taken from ChEMBL document CHEMBL4507319 (2021).

What was measured:
[1] = biological target: Tyrosine-protein kinase ABL1 (Homo sapiens) (UniProt P00519); assay: Abl(h) Eurofins kinase panel; conditions: Compound concentration 1.0 uM
[2] = biological target: PI3-kinase p110-delta/p85-alpha (Homo sapiens) (UniProt P27986+O00329); assay: PI3 Kinase(p110d/p85a)(h) Eurofins kinase panel; assay type: protein-complex assay; conditions: Compound concentration 1.0 uM
[3] = biological target: Serine/threonine-protein kinase PAK 3 (Homo sapiens) (UniProt O75914); assay: PAK3(h) Eurofins kinase panel; conditions: Compound concentration 1.0 uM
[4] = biological target: CDK3/cyclin E (Homo sapiens) (UniProt P24864+O96020+Q00526); assay: CDK3/cyclinE(h) Eurofins kinase panel; assay type: protein-complex assay; conditions: Compound concentration 1.0 uM
[5] = biological target: T1, Serine/threonine-protein kinase ULK1 (Homo sapiens) (UniProt O75385); assay: ULK1(h) Eurofins kinase panel; conditions: Compound concentration 1.0 uM
T1 sequence (whole entry): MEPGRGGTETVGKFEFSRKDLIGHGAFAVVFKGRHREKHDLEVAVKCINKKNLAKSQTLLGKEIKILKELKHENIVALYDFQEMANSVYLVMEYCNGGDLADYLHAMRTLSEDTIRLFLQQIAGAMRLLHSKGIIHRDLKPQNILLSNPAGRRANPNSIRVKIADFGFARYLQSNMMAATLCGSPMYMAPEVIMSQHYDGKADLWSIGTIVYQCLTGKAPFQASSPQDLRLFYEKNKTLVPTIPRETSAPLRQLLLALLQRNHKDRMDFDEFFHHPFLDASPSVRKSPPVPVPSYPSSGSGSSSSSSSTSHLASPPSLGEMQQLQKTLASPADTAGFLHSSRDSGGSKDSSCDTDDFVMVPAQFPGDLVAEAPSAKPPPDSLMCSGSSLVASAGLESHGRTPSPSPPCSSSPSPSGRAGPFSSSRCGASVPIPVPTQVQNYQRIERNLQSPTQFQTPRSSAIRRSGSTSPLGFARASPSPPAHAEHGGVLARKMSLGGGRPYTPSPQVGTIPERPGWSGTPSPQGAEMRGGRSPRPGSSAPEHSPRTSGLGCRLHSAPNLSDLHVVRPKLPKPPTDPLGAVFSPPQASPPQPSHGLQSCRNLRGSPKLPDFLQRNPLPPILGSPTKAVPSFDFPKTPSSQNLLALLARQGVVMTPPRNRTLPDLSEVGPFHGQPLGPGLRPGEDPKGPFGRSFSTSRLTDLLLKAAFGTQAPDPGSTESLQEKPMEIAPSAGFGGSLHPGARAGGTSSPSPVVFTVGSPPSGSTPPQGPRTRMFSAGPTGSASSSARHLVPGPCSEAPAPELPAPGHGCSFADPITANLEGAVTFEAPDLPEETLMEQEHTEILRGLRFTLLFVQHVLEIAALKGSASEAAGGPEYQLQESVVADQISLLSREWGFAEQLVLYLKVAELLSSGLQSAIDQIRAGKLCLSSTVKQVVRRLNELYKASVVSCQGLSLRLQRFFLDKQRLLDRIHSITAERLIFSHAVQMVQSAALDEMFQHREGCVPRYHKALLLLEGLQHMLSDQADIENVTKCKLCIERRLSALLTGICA

[6] = biological target: Mitogen-activated protein kinase kinase kinase 10 (Homo sapiens) (UniProt Q02779); assay: MLK2(h) Eurofins kinase panel; conditions: Compound concentration 1.0 uM
[7] = biological target: Calcium/calmodulin-dependent protein kinase kinase 1 (Homo sapiens) (UniProt Q8N5S9); assay: CaMKK1(h) Eurofins kinase panel; conditions: Compound concentration 1.0 uM
[8] = biological target: T2, Protein kinase C epsilon type (Homo sapiens) (UniProt Q02156); assay: PKCepsilon (h) Eurofins kinase panel; conditions: Compound concentration 1.0 uM
T2 sequence (whole entry): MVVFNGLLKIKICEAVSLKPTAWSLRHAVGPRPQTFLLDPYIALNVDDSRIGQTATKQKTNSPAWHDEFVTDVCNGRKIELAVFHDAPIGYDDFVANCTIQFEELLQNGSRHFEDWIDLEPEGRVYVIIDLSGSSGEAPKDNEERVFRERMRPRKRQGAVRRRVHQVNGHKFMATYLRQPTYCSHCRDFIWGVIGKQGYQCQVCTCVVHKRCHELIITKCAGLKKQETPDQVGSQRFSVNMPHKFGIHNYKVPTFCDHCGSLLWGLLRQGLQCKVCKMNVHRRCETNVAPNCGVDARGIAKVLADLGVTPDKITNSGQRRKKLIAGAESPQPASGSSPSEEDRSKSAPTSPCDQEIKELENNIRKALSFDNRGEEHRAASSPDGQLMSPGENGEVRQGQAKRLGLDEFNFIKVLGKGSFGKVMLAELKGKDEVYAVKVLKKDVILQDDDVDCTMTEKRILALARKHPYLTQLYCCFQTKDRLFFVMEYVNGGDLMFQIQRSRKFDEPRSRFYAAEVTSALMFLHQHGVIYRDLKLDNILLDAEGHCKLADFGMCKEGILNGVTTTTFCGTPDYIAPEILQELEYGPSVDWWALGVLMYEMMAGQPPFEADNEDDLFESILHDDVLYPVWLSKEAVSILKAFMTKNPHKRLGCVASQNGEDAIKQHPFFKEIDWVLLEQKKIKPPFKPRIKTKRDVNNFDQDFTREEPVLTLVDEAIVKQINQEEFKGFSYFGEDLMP

[9] = biological target: Maternal embryonic leucine zipper kinase (Homo sapiens) (UniProt Q14680); assay: MELK(h) Eurofins kinase panel; conditions: Compound concentration 1.0 uM
[10] = biological target: BDNF/NT-3 growth factors receptor (Homo sapiens) (UniProt Q16620); assay: TrkB(h) Eurofins kinase panel; conditions: Compound concentration 1.0 uM
[11] = biological target: Focal adhesion kinase 1 (Homo sapiens) (UniProt Q05397); assay: FAK(h) Eurofins kinase panel; conditions: Compound concentration 1.0 uM
[12] = biological target: Eukaryotic translation initiation factor 2-alpha kinase 1 (Homo sapiens) (UniProt Q9BQI3); assay: HRI(h) Eurofins kinase panel; conditions: Compound concentration 1.0 uM
[13] = biological target: Mitogen-activated protein kinase 11 (Homo sapiens) (UniProt Q15759); assay: SAPK2b(h) Eurofins kinase panel; conditions: Compound concentration 1.0 uM
[14] = biological target: Transient receptor potential cation channel subfamily M member 7 (Homo sapiens) (UniProt Q96QT4); assay: ChaK1(h) Eurofins kinase panel; conditions: Compound concentration 1.0 uM
[15] = biological target: Fibroblast growth factor receptor 2 (Homo sapiens) (UniProt P21802); assay: FGFR2(h) Eurofins kinase panel; conditions: Compound concentration 1.0 uM
[16] = biological target: Protein kinase C theta type (Homo sapiens) (UniProt Q04759); conditions: Compound concentration 1000.0 nM
Chain of Protein kinase C theta type (Homo sapiens) (Q04759 whole entry, looked up): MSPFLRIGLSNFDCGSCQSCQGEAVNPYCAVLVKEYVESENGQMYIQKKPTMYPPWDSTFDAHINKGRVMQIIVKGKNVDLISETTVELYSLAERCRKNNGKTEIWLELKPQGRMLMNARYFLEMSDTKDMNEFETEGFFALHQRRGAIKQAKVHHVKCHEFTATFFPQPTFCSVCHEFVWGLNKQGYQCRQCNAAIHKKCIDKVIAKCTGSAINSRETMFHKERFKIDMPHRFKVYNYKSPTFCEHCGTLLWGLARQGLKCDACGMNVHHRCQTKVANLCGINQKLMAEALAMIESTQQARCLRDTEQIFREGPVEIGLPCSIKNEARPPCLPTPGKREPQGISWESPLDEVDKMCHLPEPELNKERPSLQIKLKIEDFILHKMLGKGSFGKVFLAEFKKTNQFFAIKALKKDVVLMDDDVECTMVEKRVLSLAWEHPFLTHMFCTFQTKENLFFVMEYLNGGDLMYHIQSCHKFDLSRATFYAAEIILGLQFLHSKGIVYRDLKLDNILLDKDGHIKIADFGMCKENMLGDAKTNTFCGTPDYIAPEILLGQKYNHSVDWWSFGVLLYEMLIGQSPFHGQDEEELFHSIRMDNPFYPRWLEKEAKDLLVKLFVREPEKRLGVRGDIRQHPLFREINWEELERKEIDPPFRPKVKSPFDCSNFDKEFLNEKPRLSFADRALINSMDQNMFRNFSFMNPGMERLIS

Chain of CDK3/cyclin E (Homo sapiens) (O96020 whole entry, looked up): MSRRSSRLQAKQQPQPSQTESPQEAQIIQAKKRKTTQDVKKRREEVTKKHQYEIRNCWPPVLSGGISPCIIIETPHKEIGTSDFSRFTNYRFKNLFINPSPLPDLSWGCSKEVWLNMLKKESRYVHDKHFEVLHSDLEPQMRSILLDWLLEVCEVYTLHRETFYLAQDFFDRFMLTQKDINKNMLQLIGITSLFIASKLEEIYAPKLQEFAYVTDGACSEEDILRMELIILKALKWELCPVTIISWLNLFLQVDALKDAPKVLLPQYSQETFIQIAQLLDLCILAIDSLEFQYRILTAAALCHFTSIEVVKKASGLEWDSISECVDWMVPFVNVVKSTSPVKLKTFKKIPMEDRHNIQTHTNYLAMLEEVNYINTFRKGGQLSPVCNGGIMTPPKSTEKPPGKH
Chain of CDK3/cyclin E (Homo sapiens) (P24864 whole entry, looked up): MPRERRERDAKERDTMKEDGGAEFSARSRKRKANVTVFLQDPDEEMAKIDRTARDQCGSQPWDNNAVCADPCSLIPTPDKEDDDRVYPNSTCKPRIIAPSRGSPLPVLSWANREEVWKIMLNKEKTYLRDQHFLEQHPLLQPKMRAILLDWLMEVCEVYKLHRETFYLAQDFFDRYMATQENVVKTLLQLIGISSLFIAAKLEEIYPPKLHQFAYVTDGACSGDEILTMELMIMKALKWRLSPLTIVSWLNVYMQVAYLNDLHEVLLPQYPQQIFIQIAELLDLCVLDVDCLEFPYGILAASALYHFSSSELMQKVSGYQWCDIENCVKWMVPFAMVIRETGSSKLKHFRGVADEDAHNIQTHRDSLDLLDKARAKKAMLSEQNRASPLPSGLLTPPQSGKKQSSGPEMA
Chain of CDK3/cyclin E (Homo sapiens) (Q00526 whole entry, looked up): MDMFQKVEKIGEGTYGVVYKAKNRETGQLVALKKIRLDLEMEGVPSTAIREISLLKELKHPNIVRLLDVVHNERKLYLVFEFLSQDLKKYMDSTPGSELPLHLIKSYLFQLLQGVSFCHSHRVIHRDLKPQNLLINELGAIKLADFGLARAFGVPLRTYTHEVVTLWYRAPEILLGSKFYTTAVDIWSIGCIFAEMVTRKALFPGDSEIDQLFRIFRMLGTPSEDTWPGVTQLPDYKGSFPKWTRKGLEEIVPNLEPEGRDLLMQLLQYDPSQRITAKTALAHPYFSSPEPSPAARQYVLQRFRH
Chain of Eukaryotic translation initiation factor 2-alpha kinase 1 (Homo sapiens) (Q9BQI3 whole entry): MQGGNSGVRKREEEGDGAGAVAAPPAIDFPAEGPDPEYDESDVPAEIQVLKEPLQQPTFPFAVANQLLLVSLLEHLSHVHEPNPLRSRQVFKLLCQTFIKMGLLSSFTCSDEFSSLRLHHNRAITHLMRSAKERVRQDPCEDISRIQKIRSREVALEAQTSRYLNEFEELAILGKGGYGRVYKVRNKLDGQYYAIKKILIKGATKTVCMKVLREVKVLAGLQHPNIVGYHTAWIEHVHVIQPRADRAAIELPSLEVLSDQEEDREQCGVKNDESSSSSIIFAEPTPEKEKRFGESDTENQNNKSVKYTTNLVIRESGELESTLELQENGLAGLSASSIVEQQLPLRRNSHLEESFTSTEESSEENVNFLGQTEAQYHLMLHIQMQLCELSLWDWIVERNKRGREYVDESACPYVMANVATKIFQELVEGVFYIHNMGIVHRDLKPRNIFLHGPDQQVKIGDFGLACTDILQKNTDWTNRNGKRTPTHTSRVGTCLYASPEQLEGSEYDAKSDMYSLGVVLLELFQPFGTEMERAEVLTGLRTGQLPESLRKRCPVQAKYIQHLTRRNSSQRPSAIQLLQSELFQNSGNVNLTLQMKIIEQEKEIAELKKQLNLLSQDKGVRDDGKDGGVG
Chain of BDNF/NT-3 growth factors receptor (Homo sapiens) (Q16620 32-822 limits assumed): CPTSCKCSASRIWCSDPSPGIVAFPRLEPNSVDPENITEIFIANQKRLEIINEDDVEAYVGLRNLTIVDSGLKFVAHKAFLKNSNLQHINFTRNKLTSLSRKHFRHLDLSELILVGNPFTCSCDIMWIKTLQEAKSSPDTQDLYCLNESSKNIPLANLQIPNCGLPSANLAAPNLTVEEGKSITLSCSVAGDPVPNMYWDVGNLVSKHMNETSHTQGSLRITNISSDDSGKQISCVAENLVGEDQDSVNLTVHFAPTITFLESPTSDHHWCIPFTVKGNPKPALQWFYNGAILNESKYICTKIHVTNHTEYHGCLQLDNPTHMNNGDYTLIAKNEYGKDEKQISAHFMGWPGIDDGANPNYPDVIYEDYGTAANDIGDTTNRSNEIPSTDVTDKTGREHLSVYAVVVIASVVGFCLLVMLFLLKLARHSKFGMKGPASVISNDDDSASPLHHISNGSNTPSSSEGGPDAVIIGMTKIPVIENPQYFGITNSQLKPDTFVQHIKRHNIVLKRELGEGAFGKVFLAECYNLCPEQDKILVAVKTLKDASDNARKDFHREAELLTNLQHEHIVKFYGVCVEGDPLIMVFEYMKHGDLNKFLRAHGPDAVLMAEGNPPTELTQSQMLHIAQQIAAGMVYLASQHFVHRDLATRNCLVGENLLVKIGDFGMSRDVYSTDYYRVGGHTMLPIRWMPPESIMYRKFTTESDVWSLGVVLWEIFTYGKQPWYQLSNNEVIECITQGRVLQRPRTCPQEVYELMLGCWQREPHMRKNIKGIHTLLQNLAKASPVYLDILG
Chain of Maternal embryonic leucine zipper kinase (Homo sapiens) (Q14680 whole entry, looked up): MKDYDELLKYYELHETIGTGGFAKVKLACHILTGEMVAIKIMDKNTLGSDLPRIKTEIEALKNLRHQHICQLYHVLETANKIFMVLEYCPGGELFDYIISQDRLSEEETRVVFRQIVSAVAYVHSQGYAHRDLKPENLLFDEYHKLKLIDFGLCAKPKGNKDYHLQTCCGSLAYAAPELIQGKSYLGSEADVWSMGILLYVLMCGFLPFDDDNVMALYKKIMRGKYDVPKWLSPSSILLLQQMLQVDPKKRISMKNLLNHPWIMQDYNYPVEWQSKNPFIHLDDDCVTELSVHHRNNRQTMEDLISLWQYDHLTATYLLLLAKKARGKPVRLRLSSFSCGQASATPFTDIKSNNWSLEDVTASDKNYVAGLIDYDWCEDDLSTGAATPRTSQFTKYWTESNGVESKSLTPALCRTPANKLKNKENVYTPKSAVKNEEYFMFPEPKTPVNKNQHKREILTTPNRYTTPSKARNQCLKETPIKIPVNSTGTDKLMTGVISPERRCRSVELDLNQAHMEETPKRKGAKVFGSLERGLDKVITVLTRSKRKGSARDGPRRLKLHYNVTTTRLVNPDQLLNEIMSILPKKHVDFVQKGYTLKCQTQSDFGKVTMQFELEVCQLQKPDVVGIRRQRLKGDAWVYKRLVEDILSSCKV
Chain of Tyrosine-protein kinase ABL1 (Homo sapiens) (P00519 whole entry): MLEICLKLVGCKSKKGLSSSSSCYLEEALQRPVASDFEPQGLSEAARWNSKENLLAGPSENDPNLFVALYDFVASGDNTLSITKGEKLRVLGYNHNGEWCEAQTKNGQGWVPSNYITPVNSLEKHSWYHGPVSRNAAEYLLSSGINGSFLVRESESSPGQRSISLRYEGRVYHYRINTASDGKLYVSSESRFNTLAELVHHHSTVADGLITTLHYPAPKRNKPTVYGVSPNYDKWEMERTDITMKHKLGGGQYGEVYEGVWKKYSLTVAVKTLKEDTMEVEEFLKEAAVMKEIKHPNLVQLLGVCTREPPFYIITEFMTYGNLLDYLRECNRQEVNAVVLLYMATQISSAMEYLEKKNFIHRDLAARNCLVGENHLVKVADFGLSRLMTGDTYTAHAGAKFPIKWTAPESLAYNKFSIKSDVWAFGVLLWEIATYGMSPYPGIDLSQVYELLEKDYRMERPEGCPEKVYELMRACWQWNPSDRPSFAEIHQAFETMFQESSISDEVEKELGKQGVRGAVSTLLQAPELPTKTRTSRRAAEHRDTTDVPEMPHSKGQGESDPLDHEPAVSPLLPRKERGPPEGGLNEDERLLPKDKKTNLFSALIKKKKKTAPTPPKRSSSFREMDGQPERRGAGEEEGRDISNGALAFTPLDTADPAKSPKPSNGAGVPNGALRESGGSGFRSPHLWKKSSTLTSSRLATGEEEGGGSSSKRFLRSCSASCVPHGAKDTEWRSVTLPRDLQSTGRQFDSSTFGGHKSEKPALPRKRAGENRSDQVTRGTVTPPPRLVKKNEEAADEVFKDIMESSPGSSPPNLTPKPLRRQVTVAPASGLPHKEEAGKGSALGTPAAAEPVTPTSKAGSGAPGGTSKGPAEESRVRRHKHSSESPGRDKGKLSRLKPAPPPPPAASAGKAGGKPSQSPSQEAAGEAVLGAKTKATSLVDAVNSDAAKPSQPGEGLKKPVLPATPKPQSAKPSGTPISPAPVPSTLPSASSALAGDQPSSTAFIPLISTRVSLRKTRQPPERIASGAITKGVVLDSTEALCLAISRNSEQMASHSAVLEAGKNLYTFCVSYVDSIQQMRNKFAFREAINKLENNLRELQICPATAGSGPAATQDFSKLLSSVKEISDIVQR

CCc1ccccc1C(=O)Nc1n[nH]c2c(C)c(F)c(C3C(C#N)=C(C)N(C)C(C)=C3C#N)cc12 [BAY-3827]
inactive: % residual kinase activity [1] 131% | % residual kinase activity [2] 103% | % residual kinase activity [3] 100% | % residual kinase activity [4] 100% | % residual kinase activity [5] 26% | % residual kinase activity [6] 94% | % residual kinase activity [7] 95% | % residual kinase activity [8] 62% | % residual kinase activity [9] 39% | % residual kinase activity [10] 103% | % residual kinase activity [11] 84% | % residual kinase activity [12] 100% | % residual kinase activity [13] 110% | % residual kinase activity [14] 100% | % residual kinase activity [15] 58%

CC1=C(C#N)C(c2ccc3c(c2)c(NC(=O)c2ccccc2C)nn3C)C(C#N)=C(C)N1 [BAY-974]
inactive: residual activity [16] 55%
